{
  "source": "patent US20080171716A1",
  "about": "“NUCLEIC ACID MODULATION OF TOLL-LIKE RECEPTOR-MEDIATED IMMUNE STIMULATION” (Protiva Biotherapeutics, Inc., priority 2006, published 2008)",
  "biological_target": "T1, TLR7 (Mus musculus, UniProt P58681)",
  "T1 sequence (P58681 27-1050)": "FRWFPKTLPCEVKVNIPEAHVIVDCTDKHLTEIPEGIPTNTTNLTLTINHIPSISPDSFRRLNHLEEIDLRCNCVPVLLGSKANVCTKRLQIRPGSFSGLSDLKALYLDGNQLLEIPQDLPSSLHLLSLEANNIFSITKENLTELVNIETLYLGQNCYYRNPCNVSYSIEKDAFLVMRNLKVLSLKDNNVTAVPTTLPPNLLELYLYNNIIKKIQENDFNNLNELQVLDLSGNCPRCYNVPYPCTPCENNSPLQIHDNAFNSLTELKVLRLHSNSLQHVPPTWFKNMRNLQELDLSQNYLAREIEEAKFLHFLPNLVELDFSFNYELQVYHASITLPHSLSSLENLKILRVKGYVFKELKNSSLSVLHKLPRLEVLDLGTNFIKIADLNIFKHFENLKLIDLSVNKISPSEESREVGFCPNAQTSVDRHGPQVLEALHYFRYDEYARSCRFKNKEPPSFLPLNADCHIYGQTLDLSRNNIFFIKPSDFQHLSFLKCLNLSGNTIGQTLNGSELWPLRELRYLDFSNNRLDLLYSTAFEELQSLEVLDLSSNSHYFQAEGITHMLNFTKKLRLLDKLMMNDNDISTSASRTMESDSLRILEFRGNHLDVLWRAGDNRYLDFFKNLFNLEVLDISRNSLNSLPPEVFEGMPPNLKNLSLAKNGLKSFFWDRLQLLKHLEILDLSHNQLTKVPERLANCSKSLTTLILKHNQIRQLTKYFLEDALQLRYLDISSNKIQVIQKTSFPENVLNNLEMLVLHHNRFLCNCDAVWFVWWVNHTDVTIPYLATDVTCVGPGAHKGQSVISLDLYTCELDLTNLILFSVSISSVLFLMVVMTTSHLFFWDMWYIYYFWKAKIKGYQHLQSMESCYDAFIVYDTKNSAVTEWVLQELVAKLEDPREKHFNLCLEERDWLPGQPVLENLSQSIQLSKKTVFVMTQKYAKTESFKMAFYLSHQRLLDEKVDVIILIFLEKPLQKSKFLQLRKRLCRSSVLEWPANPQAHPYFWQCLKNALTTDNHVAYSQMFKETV",
  "assay": "Loxoribine-induced IFN-α/IL-6 production in murine Flt3L-derived dendritic cells",
  "assay_type": "cell-based",
  "parameters": "Femurs and tibiae of female Balb/C mice were isolated; endogenous in cells; host or cells: Flt3L-derived dendritic cells cultured from bone marrow of female Balb/C mice",
  "conditions": "murine Flt3L DC; 30 μM Lox; 0.2 μM RNA; 24 h",
  "procedure": "Lipid Encapsulation of RNA and ODN. RNA or ODN were encapsulated in liposomes by a process of spontaneous vesicle formation as described in Judge et al., supra, and Jeffs et al., Pharm. Res., 22:362-372 (2005).\nFlt3L-derived dendritic cells (DC) were generated as described in Gilliet et al., J. Exp. Med., 195:953-958 (2002), using 100 ng/ml murine Flt3-ligand (Peprotech) supplemented media. Femurs and tibiae of female Balb/C mice were isolated and rinsed in sterile PBS. The ends of bones were cut and marrow harvested in complete media (RPMI 1640, 10% heat inactivated FBS, 1% penicillin/streptomycin, 2 mM L-glutamine, 1 mM sodium pyruvate, 25 mM HEPES, 50 μM 2-mercaptoethanol). Bone marrow cells were passed through a 70 μm strainer and centrifuged at 1000 rpm for 7 min. and resuspended in complete media supplemented with 100 ng/ml murine Flt3L to 2×10^6 cells/ml. 2 ml of cells were seeded in 6-well plates and 1 ml fresh media was added every two to three days. On day 9 of culture, non-adherent cells were washed in complete media and plated into 96-well plates at concentrations ranging from 0.5 to 2.5×10^5 cells/well. […]\nCytokine ELISA. All cytokines were quantified using sandwich ELISA kits according to the manufacturer's instructions. […]",
  "data": [
    {"substance": "polyUmod21: 2′OMe-uridine homopolymer of 21 nucleotides in length (UUUUUUUUUUUUUUUUUUUUU; all 2'-O-methyl, backbone not given here)", "values": [
      {"measurement": "inhibition of Lox-mediated IFN-α induction", "value": "87+/−11%"},
      {"measurement": "inhibition of Lox-mediated IL-6 induction", "value": "69+/−1%"}
    ]}
  ]
}
